Reference: ChEMBL document CHEMBL1151338, “Alkaloids of Thalictrum XXX. Eleven Minor Alkaloids From Thalictrum rugosum” (1980)
The source made the active and inactive calls. The calls are words filed in the database; no cut-off is given here.

Tests used:
[1] = test system: Mycolicibacterium smegmatis; experiment: Antimicrobial activity against Mycobacterium smegmatis ATCC 607; format: functional
Escherichia coli [2] = experiment: Antimicrobial activity against Escherichia coli ATCC 9637 at 1000 ug/ml; format: functional, organism-based
Klebsiella pneumoniae [3] = experiment: Antimicrobial activity against Klebsiella pneumoniae ATCC 10031 at 1000 ug/ml; format: functional, organism-based
[4] = test system: Salmonella enterica subsp. enterica serovar Gallinarum; experiment: Antimicrobial activity against Salmonella gallinarum ATCC 9184 at 1000 ug/ml; format: functional, organism-based
Candida albicans [5] = experiment: Antimicrobial activity against Candida albicans ATCC 10231 at 1000 ug/ml; format: functional, organism-based
Staphylococcus aureus [6] = experiment: Antimicrobial activity against Staphylococcus aureus ATCC 13709a; format: functional
[7] = test system: Salmonella enterica subsp. enterica serovar Gallinarum; experiment: Antimicrobial activity against Salmonella gallinarum ATCC 9184; format: functional
Candida albicans [8] = experiment: Antimicrobial activity against Candida albicans ATCC 10231; format: functional
Klebsiella pneumoniae [9] = experiment: Antimicrobial activity against Klebsiella pneumoniae ATCC 10031; format: functional
Escherichia coli [10] = experiment: Antimicrobial activity against Escherichia coli ATCC 9637; format: functional
Staphylococcus aureus [11] = experiment: Antimicrobial activity against Staphylococcus aureus ATCC 13709a at 1000 ug/ml; format: functional, organism-based
[12] = test system: Mycolicibacterium smegmatis; experiment: Antimicrobial activity against Mycobacterium smegmatis ATCC 607 at 1000 ug/ml; format: functional, organism-based

SMILES	Activity [1]	Activity (Escherichia coli [2])	Activity (Klebsiella pneumoniae [3])	Activity [4]	Activity (Candida albicans [5])	Activity (Staphylococcus aureus [6])	Activity [7]	Activity (Candida albicans [8])	Activity (Klebsiella pneumoniae [9])	Activity (Escherichia coli [10])	Activity (Staphylococcus aureus [11])	Activity [12]
COc1cc2c(cc1O)[C@H](Cc1ccc(OC)c(Oc3ccc(C[C@H]4c5cc(OC)c(OC)c(O)c5CCN4C)cc3)c1)N(C)CC2 [THALIRUGINE]	1000 µg/mL	inactive	inactive	inactive	inactive	1000 µg/mL	–	–	–	–	–	–
COc1cc(CCN(C)C)c2ccc3cc4c(cc3c2c1OC)OCO4 [THALICTHUBERINEC]	25 µg/mL	inactive	–	–	–	100 µg/mL	1000 µg/mL	50 µg/mL	1000 µg/mL	–	–	–
COc1ccc2cc1Oc1ccc(cc1)C[C@H]1c3c(c(O)c(OC)c(OC)c3Oc3cc4c(cc3OC)CCN(C)[C@H]4C2)CCN1C [THALIGOSINE]	100 µg/mL	inactive	–	inactive	–	100 µg/mL	–	1000 µg/mL	–	–	–	–
CN[C@@H]1[C@H](O[C@H]2[C@H](O[C@H]3[C@H](O)[C@@H](O)[C@H](N=C(N)N)[C@@H](O)[C@@H]3N=C(N)N)O[C@@H](C)[C@]2(O)C=O)O[C@@H](CO)[C@H](O)[C@H]1O [STREPTOMYCIN]	0.78 µg/mL	–	–	–	inactive	3.1 µg/mL	25 µg/mL	–	1.56 µg/mL	12.5 µg/mL	–	–
CCOc1c2c3c(c(OC)c1OC)Oc1cc4c(cc1OC)CCN(C)[C@H]4Cc1ccc(OC)c(c1)Oc1ccc(cc1)C[C@@H]3N(C)CC2 [THALIGOSINE ETHYL ETHER]	100 µg/mL	inactive	–	inactive	–	100 µg/mL	–	100 µg/mL	1000 µg/mL	–	–	–
COc1cc2c3cc1Oc1c(OC)c(OC)c(OC)c4c1[C@H](Cc1ccc(cc1)Oc1cc(ccc1O)C[C@@H]3N(C)CC2)N(C)CC4 [THALIGOSININE]	1000 µg/mL	inactive	inactive	inactive	inactive	1000 µg/mL	–	–	1000 µg/mL	–	–	–
COc1cc2c3c(c1O)Oc1c4c(cc(OC)c1OC)[C@H](Cc1ccc(cc1)Oc1cc(ccc1O)C[C@@H]3N(C)CC2)N(C)CC4 [THALIGOSIDINE]	100 µg/mL	inactive	inactive	inactive	–	1000 µg/mL	–	1000 µg/mL	–	–	–	–
COc1cc2c(cc1O)[C@H](Cc1ccc(OC)c(Oc3ccc(C[C@H]4c5cc(OC)c(OC)cc5CCN4C)cc3)c1)N(C)CC2 [NEOTHALIBRINE]	1000 µg/mL	inactive	inactive	inactive	inactive	1000 µg/mL	–	–	–	–	–	–
O=C1NCCc2cc3c(cc21)OCO3	–	inactive	inactive	inactive	inactive	–	–	–	–	–	inactive	inactive
COc1ccc(C[C@H]2c3cc(OC)c(OC)c(O)c3CCN2C)cc1Oc1ccc(C[C@H]2c3cc(OC)c(OC)c(O)c3CCN2C)cc1 [THALIRUGIDINE]	1000 µg/mL	inactive	inactive	inactive	inactive	1000 µg/mL	–	–	–	–	–	–
